In patent US11407721B2, “CIS-morpholinone and other compounds as MDM2 inhibitors for the treatment of cancer” (AMGEN INC., priority 2013, dated 2022):

The compounds below were run against interaction between HDM2 and p53 (GST-hMDM2 (1-188) / biotinylated-p53 (1-83)) (Homo sapiens (Human), UniProt Q00987) (assay: HTRF2 Assay (improved HTRF assay)). Details: 0.2 nM GST-hMDM2 (1-188), 0.5 nM biotinylated-p53 (1-83), 100 mM KF; read-out: HTRF2 IC50.
Type: binding

Sequence of interaction between HDM2 and p53 (GST-hMDM2 (1-188) / biotinylated-p53 (1-83)) (Q00987 1-188): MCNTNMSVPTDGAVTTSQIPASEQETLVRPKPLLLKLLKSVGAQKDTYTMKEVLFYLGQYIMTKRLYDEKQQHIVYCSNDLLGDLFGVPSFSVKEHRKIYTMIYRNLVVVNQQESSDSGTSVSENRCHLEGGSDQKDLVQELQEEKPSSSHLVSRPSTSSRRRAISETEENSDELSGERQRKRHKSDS

| Structure (SMILES) | IC50 |
| --- | --- |
| CCC[C@H](CC(=O)O)N1C(=O)[C@H](Cc2ccc(F)cc2)O[C@@H](c2cccc(Cl)c2)[C@H]1c1ccc(Cl)cc1 [(3R)-3-((2S,3R,6S)-2-(3-chlorophenyl)-3-(4-chlorophenyl)-6-(4-fluorobenzyl)-5-oxo-4-morpholinyl)hexanoic acid] | 3660 nM |
| CCC[C@H](C(=O)O)N1C(=O)[C@H](CCN2CCN(C)CC2)O[C@@H](c2ccc(Cl)cc2)[C@H]1c1ccc(Cl)cc1 [(2R)-2-((2S,3R,6S)-2,3-bis(4-chlorophenyl)-6-(2-(4-methyl-1-piperazinyl)ethyl)-5-oxo-4-morpholinyl)pentanoic acid] | 790 nM |
| CCC[C@H](C(=O)O)N1C(=O)[C@H](Cc2ccccc2C#N)O[C@@H](c2ccc(Cl)cc2)[C@H]1c1ccc(Cl)cc1 [Example 46, (R)-2-((2S,3R,6S)-2,3-Bis(4-chlorophenyl)-6-(2-cyanobenzyl)-5-oxomorpholino)pentanoic acid] | 259 nM |
| CCC[C@H](C(=O)O)N1C(=O)[C@H](Cc2ccc(F)cc2S(C)(=O)=O)O[C@@H](c2ccc(Cl)cc2)[C@H]1c1ccc(Cl)cc1 [Example 52, (R)-2-((2S,3R,6S)-2,3-Bis(4-chlorophenyl)-6-(4-fluoro-2-(methylsulfonyl)benzyl)-5-oxomorpholino)pentanoic acid] | 279 nM |
| CCC[C@H](C(=O)O)N1C(=O)[C@H](Cc2cccc(C#N)c2)O[C@@H](c2ccc(Cl)cc2)[C@H]1c1ccc(Cl)cc1 [Example 49, (R)-2-((2S,3R,6S)-2,3-Bis(4-chlorophenyl)-6-(3-cyanobenzyl)-5-oxomorpholino)pentanoic acid] | 561 nM |
| CCC[C@H](C(=O)O)N1C(=O)[C@H](Cc2ccc(S(=O)(=O)C(F)(F)F)cc2)O[C@@H](c2ccc(Cl)cc2)[C@H]1c1ccc(Cl)cc1 [Example 56, (R)-2-((2S,3R,6S)-2,3-Bis(4-chlorophenyl)-5-oxo-6-(4-((trifluoromethyl)sulfonyl)benzyl)morpholino)pentanoic acid] | 453 nM |
| CCC[C@H](C(=O)O)N1C(=O)[C@H](Cc2ccc(F)cc2C#N)O[C@@H](c2ccc(Cl)cc2)[C@H]1c1ccc(Cl)cc1 [Example 45, (R)-2-((2S,3R,6S)-2,3-Bis(4-chlorophenyl)-6-(2-cyano-4-fluorobenzyl)-5-oxomorpholino)pentanoic acid] | 466 nM |
| CCC[C@H](C(=O)O)N1C(=O)[C@H](Cc2ccccc2F)O[C@@H](c2ccc(Cl)cc2)[C@H]1c1ccc(Cl)cc1 [Example 47, (R)-2-((2S,3R,6S)-2,3-Bis(4-chlorophenyl)-6-(2-fluorobenzyl)-5-oxomorpholino)pentanoic acid] | 400 nM |
| CCC[C@H](C(=O)O)N1C(=O)[C@H](Cc2ccc(S(C)(=O)=O)c(F)c2)O[C@@H](c2ccc(Cl)cc2)[C@H]1c1ccc(Cl)cc1 [Example 53, (R)-2-((2S,3R,6S)-2,3-Bis(4-chlorophenyl)-6-(3-fluoro-4-(methylsulfonyl)benzyl)-5-oxomorpholino)pentanoic acid] | 276 nM |
| CCC[C@H](C(=O)O)N1C(=O)[C@H](CCN2CCOCC2)O[C@@H](c2ccc(Cl)cc2)[C@H]1c1ccc(Cl)cc1 [(2R)-2-((2S,3R,6S)-2,3-bis(4-chlorophenyl)-6-(2-(4-morpholinyl)ethyl)-5-oxo-4-morpholinyl)pentanoic acid] | 1490 nM |
| CCC[C@H](C(=O)NCCCC(=O)O)N1C(=O)[C@H](Cc2ccc(S(C)(=O)=O)cc2)O[C@@H](c2ccc(Cl)cc2)[C@H]1c1ccc(Cl)cc1 [4-(((2R)-2-((2S,3R,6S)-2,3-bis(4-chlorophenyl)-6-(4-(methylsulfonyl)benzyl)-5-oxo-4-morpholinyl)pentanoyl)amino)butanoic acid] | 2440 nM |
| CCC[C@H](C(=O)O)N1C(=O)[C@H](Cc2ccc(S(C)(=O)=O)cc2C#N)O[C@@H](c2ccc(Cl)cc2)[C@H]1c1ccc(Cl)cc1 [Example 55, (R)-2-((2S,3R,6S)-2,3-Bis(4-chlorophenyl)-6-(2-cyano-4-(methylsulfonyl)benzyl)-5-oxomorpholino)pentanoic acid] | 179 nM |
| CCC[C@H](C(=O)NCCCC(=O)OC)N1C(=O)[C@H](Cc2ccc(S(C)(=O)=O)cc2)O[C@@H](c2ccc(Cl)cc2)[C@H]1c1ccc(Cl)cc1 [methyl 4-(((2R)-2-((2S,3R,6S)-2,3-bis(4-chlorophenyl)-6-(4-(methylsulfonyl)benzyl)-5-oxo-4-morpholinyl)pentanoyl)amino)butanoate] | 749 nM |
| CCC[C@H](C(=O)O)N1C(=O)[C@H](Cc2ccccc2S(C)(=O)=O)O[C@@H](c2ccc(Cl)cc2)[C@H]1c1ccc(Cl)cc1 [Example 51, (R)-2-((2S,3R,6S)-2,3-Bis(4-chlorophenyl)-6-(2-(methylsulfonyl)benzyl)-5-oxomorpholino)pentanoic acid] | 676 nM |
| CCC[C@H](C(=O)O)N1C(=O)[C@H](Cc2cccc(S(C)(=O)=O)c2)O[C@@H](c2ccc(Cl)cc2)[C@H]1c1ccc(Cl)cc1 [Example 50, (R)-2-((2S,3R,6S)-2,3-Bis(4-chlorophenyl)-6-(3-(methylsulfonyl)benzyl)-5-oxomorpholino)pentanoic acid] | 568 nM |
| CCC[C@H](C(=O)O)N1C(=O)[C@H](CCCn2ccnc2)O[C@@H](c2ccc(Cl)cc2)[C@H]1c1ccc(Cl)cc1 [(2R)-2-((2S,3R,6S)-2,3-bis(4-chlorophenyl)-6-(3-(1H-imidazol-1-yl)propyl)-5-oxo-4-morpholinyl)pentanoic acid] | 973 nM |
| CCC[C@H](CCC(=O)O)N1C(=O)CO[C@H](c2ccc(Cl)cc2)[C@@H]1c1ccc(Cl)cc1 [(4R)-4-((2R,3S)-2,3-bis(4-chlorophenyl)-5-oxo-4-morpholinyl)heptanoic acid] | 4140 nM |
| CCC[C@H](CC(=O)O)N1C(=O)[C@@H](Cc2ccc(F)cc2)O[C@H](c2cccc(Cl)c2)[C@@H]1c1ccc(Cl)cc1 [(3R)-3-((2R,3S,6R)-2-(3-chlorophenyl)-3-(4-chlorophenyl)-6-(4-fluorobenzyl)-5-oxo-4-morpholinyl)hexanoic acid] | 1150 nM |
| CCC[C@H](C(=O)O)N1C(=O)[C@H](Cc2ccccc2)O[C@@H](c2ccc(Cl)cc2)[C@H]1c1ccc(Cl)cc1 [Example 44, (R)-2-((2S,5R,6S)-2-Benzyl-5,6-bis(4-chlorophenyl)-3-oxomorpholino)pentanoic acid] | 757 nM |
| O=C1CO[C@@H](c2ccc(Cl)cc2)[C@@H](c2ccc(Cl)cc2)N1c1cc(Cl)nc(Cl)c1 [(5R,6S)-5,6-bis(4-chlorophenyl)-4-(2,6-dichloro-4-pyridinyl)-3-morpholinone] | 63000 nM |
| CCC[C@H](C(=O)O)N1C(=O)[C@H](CCN2CCCCC2)O[C@@H](c2ccc(Cl)cc2)[C@H]1c1ccc(Cl)cc1 [(2R)-2-((2S,3R,6S)-2,3-bis(4-chlorophenyl)-5-oxo-6-(2-(1-piperidinyl)ethyl)-4-morpholinyl)pentanoic acid] | 1730 nM |
| CCC[C@H](C(=O)O)N1C(=O)[C@H](Cc2cccc(F)c2)O[C@@H](c2ccc(Cl)cc2)[C@H]1c1ccc(Cl)cc1 [Example 48, (R)-2-((2S,3R,6S)-2,3-Bis(4-chlorophenyl)-6-(3-fluorobenzyl)-5-oxomorpholino)pentanoic acid] | 420 nM |
| CCC[C@H](C(=O)O)N1C(=O)[C@H](Cc2cccc(OC)c2)O[C@@H](c2ccc(Cl)cc2)[C@H]1c1ccc(Cl)cc1 [(2R)-2-((2S,3R,6S)-2,3-bis(4-chlorophenyl)-6-(3-methoxybenzyl)-5-oxo-4-morpholinyl)pentanoic acid] | 1110 nM |
| CCC[C@H](C(=O)O)N1C(=O)[C@H](CCCO)O[C@@H](c2ccc(Cl)cc2)[C@H]1c1ccc(Cl)cc1 [(2R)-2-((2S,3R,6S)-2,3-bis(4-chlorophenyl)-6-(3-hydroxypropyl)-5-oxo-4-morpholinyl)pentanoic acid] | 3010 nM |
| CCC[C@H](CCC(=O)O)N1C(=O)CO[C@@H](c2ccc(Cl)cc2)[C@H]1c1ccc(Cl)cc1 [(4R)-4-((2S,3R)-2,3-bis(4-chlorophenyl)-5-oxo-4-morpholinyl)heptanoic acid] | 24700 nM |
| CCC[C@H](C(=O)O)N1C(=O)[C@H](Cc2ccc(S(C)(=O)=O)cc2)O[C@@H](c2ccc(Cl)cc2)[C@H]1c1ccc(Cl)cc1 [Example 54, (R)-2-((2S,3R,6S)-2,3-Bis(4-chlorophenyl)-6-(4-(methylsulfonyl)benzyl)-5-oxomorpholino)pentanoic acid] | 196 nM |

Same assay, conditions: read-out: HTRF2 IC50

| IC50 | Structure (SMILES) |
| --- | --- |
| 1330 nM | CCC[C@H](CCC(=O)O)N1C(=O)[C@H](Cc2ccc(F)cc2)O[C@@H](c2ccc(Cl)cc2)[C@H]1c1ccc(Cl)cc1 (mixture of isomers) [Example 31, (R)-4-((2S,3R,6S)-2,3-Bis(4-chlorophenyl)-6-(4-fluorobenzyl)-5-oxomorpholino)heptanoic acid and (S)-4-((2R,3S,6R)-2,3-bis(4-chlorophenyl)-6-(4-fluorobenzyl)-5-oxomorpholino)heptanoic acid] |
| 15800 nM | CS(=O)(=O)c1ccc(C[C@@H]2O[C@@H](c3ccc(Cl)cc3)[C@@H](c3ccc(Cl)cc3)N(c3cccnc3)C2=O)cc1 (racemic) [Example 62, (2S,5R,6S)-5,6-Bis(4-chlorophenyl)-2-(4-(methylsulfonyl)benzyl)-4-(pyridin-3-yl)morpholin-3-one and (2R,5S,6R)-5,6-bis(4-chlorophenyl)-2-(4-(methylsulfonyl)benzyl)-4-(pyridin-3-yl)morpholin-3-one] |
| 5000 nM | O=C1[C@H](Cc2ccc(F)cc2)O[C@@H](c2ccc(Cl)cc2)[C@@H](c2ccc(Cl)cc2)N1c1ccnc(Cl)c1 (racemic) [Example 58, (2S,5R,6S)-5,6-Bis(4-chlorophenyl)-4-(2-chloropyridin-4-yl)-2-(4-fluorobenzyl)morpholin-3-one and (2R,5S,6R)-5,6-bis(4-chlorophenyl)-4-(2-chloropyridin-4-yl)-2-(4-fluorobenzyl)morpholin-3-one] |
| 20000 nM | CS(=O)(=O)c1ccc(C[C@@H]2O[C@@H](c3ccc(Cl)cc3)[C@@H](c3ccc(Cl)cc3)N(c3cccnc3)C2=O)c(F)c1 (mixture of isomers) [Example 63, (2S,5R,6S)-5,6-Bis(4-chlorophenyl)-2-(2-fluoro-4-(methylsulfonyl)benzyl)-4-(pyridin-3-yl)morpholin-3-one and (2R,5S,6R)-5,6-bis(4-chlorophenyl)-2-(2-fluoro-4-(methylsulfonyl)benzyl)-4-(pyridin-3-yl)morpholin-3-one] |
